Source: patent US7229630B2, “Stabilized formulations of alpha adrenergic receptor antagonists and the uses thereof” (Novalar Pharmaceuticals, Inc., priority 2002, dated 2007)
Where a name gives a salt, the structure may show the parent alone.

Experiments:
healthy adult volunteers = experiment: Reversal of soft-tissue anesthesia after inferior alveolar nerve block, proof-of-principle trial; assay type: in vivo, human; settings: 0.2 mg in 1.8 ml
Description: The objective of this proof-of-principle trial was to evaluate the feasibility of reversing soft-tissue anesthesia by pharmacologically blocking the effects of epinephrine. […] Subjects self-evaluated the return of normal sensation in their lip, chin, tongue, nose, and teeth by palpations at 5-minute intervals starting at 5 minutes before the study drug injection and continuing for approximately 4–5 hours. To avoid biased responding, subjects were told that they could not leave the clinic for 8 hours after the last injection. Responses for soft tissues were categorized as (1) numb (no feeling), (2) feeling of pins and needles, or (3) normal sensation. Responses for teeth were (1) numb (no feeling) or (2) normal sensation. Safety was evaluated through reports of adverse events, measurement of vital signs and two-lead electrocardiograms before, during, and after the injections of anesthetic and study drug, and through pain assessments using visual analog scales.

[1] = Effect of buffer anion on stability at 60° C. (HPLC); assay type: physicochemical
Description: (§1) The drug is monitored at a detection wavelength of 232 nm.
(§2) Tightly sealed glass vials containing the test solutions were placed in an oven at 40° C. or 60° C. All samples were stored in the dark. Aliquots were removed at designated time points for HPLC analysis and pH measurement. All samples were analyzed without dilution.
The test buffers included 50 mM sodium phosphate, 50 mM sodium acetate, 50 mM sodium lactate, 50 mM sodium citrate, and 50 mM sodium succinate buffers at pH 3.
The phosphate and acetate buffers were prepared as described above. The citrate buffer was prepared by adding 9.60 g of citric acid to water, adjusting the pH with 2 N NaOH to pH 3, and bringing the volume to 1 L in a volumetric flask. The lactate buffer was prepared by adding 2.25 g of lactic acid to water, adjusting the pH with 2 N NaOH to pH 3, and bringing the volume to 1 L in a volumetric flask. The succinate buffer was prepared by adding 2.95 g succinic acid to water, adjusting the pH with 2 N NaOH to pH 3, and bringing the volume to 1 L in a volumetric flask.
Measurements of sample pH were done after HPLC analysis.

[2] = Narrow-range pH-stability profiling at 60° C. (HPLC); assay type: physicochemical; settings: 50 mM sodium phosphate, zero-order rate constant vs pH
Description: as §1
All samples were stored in the dark. […] All samples were analyzed without dilution.
The phosphate buffers were prepared as previously described. […] Measurement of sample pH was done after HPLC analysis.
In order to precisely define the most favorable pH, a stronger stressing condition was needed to generate a greater extent of degradation in the lower pH region. For this study, the incubation condition was shifted from 40° C. to 60° C. […] Since the extent of degradation after fourteen (14) days was still less than twenty percent (20%) in most samples, zero-order rate kinetics was used for the degradation curves (concentration versus time). The calculated rate constant was plotted against pH to provide the narrow-range pH-stability profile.

[3] = Effect of buffer concentration on stability at 60° C. (HPLC, pH); assay type: physicochemical; settings: for pH: 60° C.
Description: as §1, §2
In conjunction with HPLC analysis, pH was measured. The measurement was performed using the same samples as used for the HPLC analysis. The pH meter was calibrated using pH 4.00 and 7.00 buffer standards prior to each measurement.
Samples were incubated at 60° C. with scheduled testing performed at day 0, 2, 7, and 14. The various buffer concentrations were prepared by diluting the 50 mM buffer with water and re-examining the pH value to determine if the pH 3.5 was constant. Measurements of pH were performed after HPLC analysis of the samples.

[4] = 50 mM sodium Acetate pH 3.0, 60° C., Day 0
[5] = 50 mM sodium Acetate pH 3.0, 60° C., Day 2
[6] = 50 mM sodium Acetate pH 3.0, 60° C., Day 7
[7] = 50 mM sodium Acetate pH 3.0, 60° C., Day 14
[8] = 50 mM sodium Citrate pH 3.0, 60° C., Day 0
[9] = 50 mM sodium Citrate pH 3.0, 60° C., Day 2
[10] = 50 mM sodium Citrate pH 3.0, 60° C., Day 7
[11] = 50 mM sodium Citrate pH 3.0, 60° C., Day 14
[12] = 50 mM sodium Lactate pH 3.0, 60° C., Day 0
[13] = 50 mM sodium Lactate pH 3.0, 60° C., Day 2
[14] = 50 mM sodium Lactate pH 3.0, 60° C., Day 7
[15] = 50 mM sodium Lactate pH 3.0, 60° C., Day 14
[16] = 50 mM sodium Phosphate pH 3.0, 60° C., Day 0
[17] = 50 mM sodium Phosphate pH 3.0, 60° C., Day 2
[18] = 50 mM sodium Phosphate pH 3.0, 60° C., Day 7
[19] = 50 mM sodium Phosphate pH 3.0, 60° C., Day 14
[20] = 50 mM sodium Succinate pH 3.0, 60° C., Day 0
[21] = 50 mM sodium Succinate pH 3.0, 60° C., Day 2
[22] = 50 mM sodium Succinate pH 3.0, 60° C., Day 7
[23] = 50 mM sodium Succinate pH 3.0, 60° C., Day 14
[24] = 0 mM sodium acetate (un-buffered) pH 3.5, 60° C., Day 0
[25] = 0 mM sodium acetate (un-buffered) pH 3.5, 60° C., Day 2
[26] = 0 mM sodium acetate (un-buffered) pH 3.5, 60° C., Day 7
[27] = 0 mM sodium acetate (un-buffered) pH 3.5, 60° C., Day 14
[28] = 5 mM sodium acetate pH 3.5, 60° C., Day 0
[29] = 5 mM sodium acetate pH 3.5, 60° C., Day 2
[30] = 5 mM sodium acetate pH 3.5, 60° C., Day 7
[31] = 5 mM sodium acetate pH 3.5, 60° C., Day 14
[32] = 10 mM sodium acetate pH 3.5, 60° C., Day 0
[33] = 10 mM sodium acetate pH 3.5, 60° C., Day 2
[34] = 10 mM sodium acetate pH 3.5, 60° C., Day 7
[35] = 10 mM sodium acetate pH 3.5, 60° C., Day 14
[36] = 50 mM sodium acetate pH 3.5, 60° C., Day 7
[37] = 50 mM sodium acetate pH 3.5, 60° C., Day 14

electrocardiogram (healthy adult volunteers): no abnormalities | Phentolamine Concentration [1, 4]: 96 µg/mL | Phentolamine Purity [1, 4]: 100 % peak area | Phentolamine Concentration [1, 5]: 95 µg/mL | Phentolamine Purity [1, 5]: 98 % peak area | Phentolamine Concentration [1, 6]: 94 µg/mL | Phentolamine Purity [1, 6]: 97 % peak area | Phentolamine Concentration [1, 7]: 89 µg/mL | Phentolamine Purity [1, 7]: 96 % peak area | Phentolamine Concentration [1, 8]: 93 µg/mL | Phentolamine Purity [1, 8]: 97 % peak area | Phentolamine Concentration [1, 9]: 87 µg/mL | Phentolamine Purity [1, 9]: 91 % peak area | Phentolamine Concentration [1, 10]: 73 µg/mL | Phentolamine Purity [1, 10]: 77 % peak area | Phentolamine Concentration [1, 11]: 62 µg/mL | Phentolamine Purity [1, 11]: 69 % peak area | Phentolamine Concentration [1, 12]: 97 µg/mL | Phentolamine Purity [1, 12]: 99 % peak area | Phentolamine Concentration [1, 13]: 94 µg/mL | Phentolamine Purity [1, 13]: 98 % peak area | Phentolamine Concentration [1, 14]: 91 µg/mL | Phentolamine Purity [1, 14]: 94 % peak area | Phentolamine Concentration [1, 15]: 83 µg/mL | Phentolamine Purity [1, 15]: 89 % peak area | Phentolamine Concentration [1, 16]: 96 µg/mL | Phentolamine Purity [1, 16]: 99 % peak area | Phentolamine Concentration [1, 17]: 93 µg/mL | Phentolamine Purity [1, 17]: 97 % peak area | Phentolamine Concentration [1, 18]: 91 µg/mL | Phentolamine Purity [1, 18]: 95 % peak area | Phentolamine Concentration [1, 19]: 84 µg/mL | Phentolamine Purity [1, 19]: 91 % peak area | Phentolamine Concentration [1, 20]: 96 µg/mL | Phentolamine Purity [1, 20]: 99 % peak area | Phentolamine Concentration [1, 21]: 88 µg/mL | Phentolamine Purity [1, 21]: 92 % peak area | Phentolamine Concentration [1, 22]: 74 µg/mL | Phentolamine Purity [1, 22]: 78 % peak area | Phentolamine Concentration [1, 23]: 64 µg/mL | Phentolamine Purity [1, 23]: 74 % peak area | pH at which most stable [2]: 3.5 | Phentolamine Concentration [3, 24]: 90 µg/mL | Phentolamine Purity [3, 24]: 99 % peak area | Phentolamine Concentration [3, 25]: 92 µg/mL | Phentolamine Purity [3, 25]: 99 % peak area | Phentolamine Concentration [3, 26]: 82 µg/mL | Phentolamine Purity [3, 26]: 98 % peak area | Phentolamine Concentration [3, 27]: 77 µg/mL | Phentolamine Purity [3, 27]: 97 % peak area | pH ([3]; 0 mM sodium acetate (un-buffered), Day 0): 3.6 | pH ([3]; 0 mM sodium acetate (un-buffered), Day 2): 4.4 | pH ([3]; 0 mM sodium acetate (un-buffered), Day 7): 5.1 | pH ([3]; 0 mM sodium acetate (un-buffered), Day 14): 5.3 | Phentolamine Concentration [3, 28]: 99 µg/mL | Phentolamine Purity [3, 28]: 99 % peak area | Phentolamine Concentration [3, 29]: 97 µg/mL | Phentolamine Purity [3, 29]: 99 % peak area | Phentolamine Concentration [3, 30]: 94 µg/mL | Phentolamine Purity [3, 30]: 98 % peak area | Phentolamine Concentration [3, 31]: 92 µg/mL | Phentolamine Purity [3, 31]: 98 % peak area | pH ([3]; 5 mM sodium acetate, Day 0): 3.5 | pH ([3]; 5 mM sodium acetate, Day 2): 3.8 | pH ([3]; 5 mM sodium acetate, Day 7): 3.8 | pH ([3]; 5 mM sodium acetate, Day 14): 3.8 | Phentolamine Concentration [3, 32]: 100 µg/mL | Phentolamine Purity [3, 32]: 99 % peak area | Phentolamine Concentration [3, 33]: 97 µg/mL | Phentolamine Purity [3, 33]: 99 % peak area | Phentolamine Concentration [3, 34]: 96 µg/mL | Phentolamine Purity [3, 34]: 98 % peak area | Phentolamine Concentration [3, 35]: 92 µg/mL | Phentolamine Purity [3, 35]: 98 % peak area | pH ([3]; 10 mM sodium acetate, Day 0): 3.5 | pH ([3]; 10 mM sodium acetate, Day 2): 3.7 | pH ([3]; 10 mM sodium acetate, Day 7): 3.8 | pH ([3]; 10 mM sodium acetate, Day 14): 3.7 | Phentolamine Purity ([3]; 50 mM sodium acetate pH 3.5, 60° C., Day 0): 98 % peak area | Phentolamine Purity ([3]; 50 mM sodium acetate pH 3.5, 60° C., Day 2): 98 % peak area | Phentolamine Concentration [3, 36]: 99 µg/mL | Phentolamine Purity [3, 36]: 98 % peak area | Phentolamine Concentration [3, 37]: 96 µg/mL | Phentolamine Purity [3, 37]: 96 % peak area | pH ([3]; 50 mM sodium acetate, Day 0): 3.5 | pH ([3]; 50 mM sodium acetate, Day 2): 3.6 | pH ([3]; 50 mM sodium acetate, Day 7): 3.6 | pH ([3]; 50 mM sodium acetate, Day 14): 3.6
Compound: Cc1ccc(N(CC2=NCCN2)c2cccc(O)c2)cc1 [Phentolamine Mesylate, phentolamine mesylate]
duration of anesthesia (healthy adult volunteers; 60 minutes after 2% lidocaine with 1:100,000 epinephrine, vs saline, each tissue): significantly (p<0.01) reduced | Adverse effects (healthy adult volunteers; vs placebo): few and no differences were noted between the active and placebo groups | rank of buffer preference based on the amount of phentolamine recovered at the end of the study ([1]; pH 3, 60° C., 14 days): sodium acetate>no buffer (water with pH adjusted to pH 3)>sodium phosphate>sodium lactate>sodium succinate>sodium citrate | rate of degradation vs un-buffered control (0 mM) ([3]; 5, 10 and 50 mM sodium acetate, pH 3.5, 60° C.): comparable and was an improvement over the un-buffered control
